In patent US8158577B2, “Modulation of cartilage homeostasis by active domains of cell binding extracellular matrix molecules” (priority 2004, dated 2012):

Tested on: K105 cells
Experiment: Adhesion of K105 cells to chondroadherin in the presence of synthetic peptide (FIG. 3, 5A-5B, 13)
Assay type: cell-based, human
Details: peptide 250 μg/ml
Experimental: Human cells (K9) originating from a human chondrosarcoma were a kind gift from Drs. Sven Inerot and Anders Lindahl, The Salgrenska University Hospital Gothenburg, Sweden. The K9 cells were cultured in Dulbeccos Modified Eagle Medium: Nutrient Mixture F12 (DMEM/F12 1:1) with GLUTAMAX I, supplemented with 10% fetal calf serum, 25 μg/ml ascorbic acid, 50 IU of penicillin and 50 μg/ml streptomycin (Life Technologies, Inc.). A different human cells line (K105) originating from a human chondrosarcoma was a kind gift from Dr. Sven Inerot, The Salgrenska University Hospital, Gothenburg, Sweden. The K105 cells were cultured in a mix of 40% Dulbeccos Modified Eagle Medium, 40% Minimum Essential Media (MEM) alpha Medium, 10% Nutrient Mixture F1 supplemented with 100 nM hydrocortisone, 100 ng/ml insulin, 10% fetal calf serum, 25 μg/ml ascorbic acid, 50 IU of penicillin and 50 μg/ml streptomycin (Life Technologies, Inc.). To harvest cells, culture dishes were rinsed three times with Ca^2+/Mg^2+-free PBS and the cells were incubated with 0.5% trypsin and 1 mM EDTA for 5 min. Detached cells were suspended in PBS containing 1 mg/ml trypsin inhibitor (Sigma) and then washed in PBS. To remove membrane-bound collagens the cells were treated with collagenase 100 U/ml (CLSPA; Worthington Biochemical Corp., Lakewood, N.J.) in PBS, 30 min. 37° C. and then washed in PBS.
Tissue culture 48-wells dishes (Nunclon, Nunc, Denmark) were coated overnight with 5 μg/ml chondroadherin in 4M Guanidine-HCl, 50 mM sodium acetate, pH 5.8, or for native protein in PBS. Alternatively coating was with 5 μg/ml collagen type II in PBS followed by after-coating with 0.5% BSA in PBS for 3 hours. Collagen type II was isolated from bovine nasal cartilage by pepsin digestion (11). Bacterially expressed chondroadherin was isolated as described above. Recombinant chondroadherin expressed in EBNA cell was cloned and purified as described elsewhere (8).
To test cell binding, the chondrosarcoma cells or bovine chondrocytes were suspended in PBS containing 0.1% BSA, 25 U/ml collagenase and added to the wells (50,000/well), in the absence or presence of various peptide pools or the synthetic peptides (200, 100, 50, 25, 12.5 μg/ml). Non-adherent cells were removed after 1 hour and adhesion was determined by measuring lysosomal N-acetylglucosaminidase (12). Adhesion and spreading was visualized by light microscopy. In the time studies, k105 cells were allowed to adhere for 30 minutes, unbound cells were removed and medium without serum supplemented with or without peptides (250 μg/ml), β1 integrin antibody (clone P4C10, Gibco BRL), EDTA (5 mM) was added. Cell morphology was visualized by light microscopy after 1, 3 and 20 hours.
Study design: Tissue culture dishes (48-wells) were coated with 5 μg/ml chondroadherin expressed in E. coli and blocked for non-specific binding with BSA. […] were suspended in PBS containing 0.1% BSA, 25 U/ml collagenase and added to the wells (50,000/well) in the presence of synthetic peptide to be tested and allowed to adhere for 1 hour at 37° C. Nonadherent cells were removed by washing, and adhesion was determined by analyzing lysosomal hexosaminidase.
A 12-mer peptide (1947.01) plus an N-terminal cysteine (CQLRGLRRWLEAK) (SEQ ID NO. 3) representing the candidate sequence identified by mass spectrometry were synthesized and its ability to inhibit cell adhesion was determined. Tissue culture dishes were coated with 5 μg/ml chondroadherin expressed in E. coli and blocked for non-specific binding with BSA. The cells were suspended in PBS containing 0.1% BSA, 25 U/ml collagenase and added to the wells (50,000/well) in the presence of synthetic peptide (200, 100, 50, 25, 12.5 μg/ml) and allowed to adhere for 1 hour at 37° C. Nonadherent cells were removed by washing, and adhesion was determined by analyzing lysosomal hexosaminidase. […]

Q: Which “k105 cell adhesion to chondroadherin in the presence of peptide” value (1 hour at 37° C.) does the source give for H-CKFPTKRSKKAGRH-OH [SEQ ID No. 7] here?
A: increased

Q: What about the “k105 cell spreading on chondroadherin in the presence of peptide” value (1 hour, light microscopy) of the same substance?
A: increased
